Assay results published in ChEMBL document CHEMBL4024707, “Using gene expression database to uncover biology functions of 1,4-disubstituted 1,2,3-triazole analogues synthesized via a copper (I)-catalyzed reaction” (Eur J Med Chem, 2017).

Legend:
Hep 3B2 [1] = assay: Cell cycle arrest in human Hep3B cells assessed as accumulation at S phase at 20 uM after 72 hrs by propidium iodide staining based flow cytometry (reference value: 16.4 to 21.1%); assay type: functional
Hep 3B2 [2] = assay: Cell cycle arrest in human Hep3B cells assessed as accumulation at S phase at 2.5 uM after 72 hrs by propidium iodide staining based flow cytometry (reference value: 16.4 to 21.1%); assay type: functional
Hep 3B2 [3] = assay: Cell cycle arrest in human Hep3B cells assessed as accumulation at G0/G1 phase at 20 uM after 24 hrs by propidium iodide staining based flow cytometry (reference value: 36.3 to 39.0%); assay type: functional
Hep 3B2 [4] = assay: Cell cycle arrest in human Hep3B cells assessed as accumulation at sub-G1 phase at 2.5 uM after 72 hrs by propidium iodide staining based flow cytometry (reference value: 0.6 to 3.3 %); assay type: functional
Hep 3B2 [5] = assay: Cell cycle arrest in human Hep3B cells assessed as accumulation at sub-G1 phase at 20 uM after 24 hrs by propidium iodide staining based flow cytometry (reference value: 1.9 to 3.6%); assay type: functional
Hep 3B2 [6] = assay: Induction of autophagy in human Hep3B cells at 2.5 uM after 72 hrs by acridine orange staining based flow cytometry (reference value: 1.1 to 4%); assay type: functional
Hep 3B2 [7] = assay: Induction of autophagy in human Hep3B cells at 20 uM after 72 hrs by acridine orange staining based flow cytometry (reference value: 1.1 to 4%); assay type: functional
Hep 3B2 [8] = assay: Induction of autophagy in human Hep3B cells at 5 uM after 24 hrs by acridine orange staining based flow cytometry (reference value: 1.1 to 1.3%); assay type: functional
Hep 3B2 [9] = assay: Cell cycle arrest in human Hep3B cells assessed as accumulation at G0/G1 phase at 10 uM after 24 hrs by propidium iodide staining based flow cytometry (reference value: 36.3 to 39.0%); assay type: functional
Hep 3B2 [10] = assay: Cell cycle arrest in human Hep3B cells assessed as accumulation at sub-G1 phase at 2.5 uM after 48 hrs by propidium iodide staining based flow cytometry (reference value: 1.5 to 6.5%); assay type: functional
Hep 3B2 [11] = assay: Induction of autophagy in human Hep3B cells at 2.5 to 20 uM by acridine orange staining based flow cytometry; assay type: functional, cell-based; details: TDE = time-dependent effect
Hep 3B2 [12] = assay: Cell cycle arrest in human Hep3B cells assessed as accumulation at G2/M phase at 20 uM after 72 hrs by propidium iodide staining based flow cytometry (reference value: 28.7 to 32.3%); assay type: functional
Hep 3B2 [13] = assay: Induction of autophagy in human Hep3B cells at 2.5 uM after 24 hrs by acridine orange staining based flow cytometry (reference value: 1.1 to 1.3%); assay type: functional
Hep 3B2 [14] = assay: Cell cycle arrest in human Hep3B cells assessed as accumulation at S phase at 10 uM after 24 hrs by propidium iodide staining based flow cytometry (reference value: 22.6 to 27.1%); assay type: functional
Hep 3B2 [15] = assay: Induction of autophagy in human Hep3B cells at 20 uM after 48 hrs by acridine orange staining based flow cytometry (reference value: 0.9 to 3%); assay type: functional
Hep 3B2 [16] = assay: Cell cycle arrest in human Hep3B cells assessed as accumulation at sub-G1 phase at 5 uM after 48 hrs by propidium iodide staining based flow cytometry (reference value: 1.5 to 6.5%); assay type: functional
Hep 3B2 [17] = assay: Cell cycle arrest in human Hep3B cells assessed as accumulation at G0/G1 phase at 20 uM after 72 hrs by propidium iodide staining based flow cytometry (reference value: 41.6 to 46.2%); assay type: functional
Hep 3B2 [18] = assay: Induction of autophagy in human Hep3B cells after 24 to 72 hrs by acridine orange staining based flow cytometry; assay type: functional, cell-based
Hep 3B2 [19] = assay: Cell cycle arrest in human Hep3B cells assessed as accumulation at sub-G1 phase at 10 uM after 48 hrs by propidium iodide staining based flow cytometry (reference value: 1.5 to 6.5%); assay type: functional
Hep 3B2 [20] = assay: Cell cycle arrest in human Hep3B cells assessed as accumulation at sub-G1 phase at 10 uM after 72 hrs by propidium iodide staining based flow cytometry (reference value: 0.6 to 3.3%); assay type: functional
Hep 3B2 [21] = assay: Induction of autophagy in human Hep3B cells at 10 uM after 24 hrs by acridine orange staining based flow cytometry (reference value: 1.1 to 1.3%); assay type: functional
Hep 3B2 [22] = assay: Induction of autophagy in human Hep3B cells at 5 uM after 72 hrs by acridine orange staining based flow cytometry (reference value: 1.1 to 4%); assay type: functional
Hep 3B2 [23] = assay: Cell cycle arrest in human Hep3B cells assessed as accumulation at sub-G1 phase at 20 uM after 72 hrs by propidium iodide staining based flow cytometry (reference value: 0.6 to 3.3%); assay type: functional
Hep 3B2 [24] = assay: Cell cycle arrest in human Hep3B cells assessed as accumulation at S phase at 10 uM after 72 hrs by propidium iodide staining based flow cytometry (reference value: 16.4 to 21.1%); assay type: functional
Hep 3B2 [25] = assay: Induction of autophagy in human Hep3B cells at 2.5 uM after 48 hrs by acridine orange staining based flow cytometry (reference value: 0.9 to 3%); assay type: functional
Hep 3B2 [26] = assay: Cell cycle arrest in human Hep3B cells assessed as accumulation at sub-G1 phase at 5 uM after 24 hrs by propidium iodide staining based flow cytometry (reference value: 1.9 to 3.6%); assay type: functional
Hep 3B2 [27] = assay: Induction of autophagy in human Hep3B cells at 5 uM after 48 hrs by acridine orange staining based flow cytometry (reference value: 0.9 to 3%); assay type: functional
Hep 3B2 [28] = assay: Cell cycle arrest in human Hep3B cells assessed as accumulation at S phase at 5 uM after 24 hrs by propidium iodide staining based flow cytometry (reference value: 22.6 to 27.1%); assay type: functional
Hep 3B2 [29] = assay: Induction of autophagy in human Hep3B cells at 10 uM after 48 hrs by acridine orange staining based flow cytometry (reference value: 0.9 to 3%); assay type: functional
Hep 3B2 [30] = assay: Cell cycle arrest in human Hep3B cells assessed as accumulation at sub-G1 phase at 10 uM after 24 hrs by propidium iodide staining based flow cytometry (reference value: 1.9 to 3.6%); assay type: functional
Hep 3B2 [31] = assay: Cell cycle arrest in human Hep3B cells assessed as accumulation at sub-G1 phase at 2.5 uM after 24 hrs by propidium iodide staining based flow cytometry (reference value: 1.9 to 3.6%); assay type: functional
Hep 3B2 [32] = assay: Cell cycle arrest in human Hep3B cells assessed as accumulation at S phase at 20 uM after 24 hrs by propidium iodide staining based flow cytometry (reference value: 22.6 to 27.1%); assay type: functional
Hep 3B2 [33] = assay: Cell cycle arrest in human Hep3B cells assessed as accumulation at sub-G1 phase at 5 uM after 72 hrs by propidium iodide staining based flow cytometry (reference value: 0.6 to 3.3%); assay type: functional
[34] = Growth inhibition of HUVEC at 25 uM after 24 hrs by MTT assay relative to control; assay type: cell-based; details: human, HUVEC cells; read-out: GI
[35] = Growth inhibition of HUVEC at 50 uM after 24 hrs by MTT assay relative to control; assay type: cell-based; details: human, HUVEC cells; read-out: GI
Hep 3B2 [36] = assay: Growth inhibition of human Hep3B cells at 10 uM after 24 hrs by MTT assay relative to control; assay type: functional; details: read-out: GI
HUVEC = assay: Cytotoxicity against HUVEC after 48 hrs by MTT assay; assay type: cell-based; details: Homo sapiens

Row | Compound | Activity (Hep 3B2 [1]) | Activity (Hep 3B2 [4]) | Activity (Hep 3B2 [6]) | Activity (Hep 3B2 [7]) | Activity (Hep 3B2 [8]) | Activity (Hep 3B2 [10]) | Activity (Hep 3B2 [11]) | Activity (Hep 3B2 [13]) | Activity (Hep 3B2 [16]) | Activity (Hep 3B2 [19]) | Activity (Hep 3B2 [20]) | Activity (Hep 3B2 [21]) | Activity (Hep 3B2 [22]) | Activity (Hep 3B2 [23]) | Activity (Hep 3B2 [25]) | Activity (Hep 3B2 [26]) | Activity (Hep 3B2 [27]) | Activity (Hep 3B2 [30]) | Activity (Hep 3B2 [31]) | Activity (Hep 3B2 [33]) | also measured
1 | COc1ccc(CNC(=O)Nc2ncc([N+](=O)[O-])s2)cc1 | 19.5% | 1.6% | 6.4% | 15.5% | 5.3% | 3.4% | Tde | 4.7% | 5% | 3.3% | 1.3% | 5.9% | 10.9% | 2.1% | 8.1% | 4.2% | 6.3% | 5% | 3.1% | 2.4% | Activity (Hep 3B2 [2]): 21.1%; Activity (Hep 3B2 [3]): 33%; Activity (Hep 3B2 [5]): 4.7%; Activity (Hep 3B2 [9]): 34.3%; Activity (Hep 3B2 [12]): 34.9%; Activity (Hep 3B2 [14]): 23.4%; Activity (Hep 3B2 [15]): 5.5%; Activity (Hep 3B2 [17]): 43.6%; Activity (Hep 3B2 [18]): Dose-dependent effect; Activity (Hep 3B2 [24]): 21.5%; Activity (Hep 3B2 [28]): 25%; Activity (Hep 3B2 [29]): 5.8%; Activity (Hep 3B2 [32]): 25.1%
2 | O=C1COc2ccccc2N1Cc1cn(CCC2OCCO2)nn1 |  | 7.9% | 1.9% | 57% | 1.6% | 6.5% | Tde | 1.3% | 14.2% | 37.4 - 41.4% | 54% | 2.4% | 12.8% | 65.7% | 1.9% | 12.4% | 5.1% | 22.4% | 6.2% | 18% | Activity (Hep 3B2 [5]): 34.1%; inhibition at 24 h, 25 µM [34]: 23.8%; inhibition at 24 h, 50 µM [35]: 21.5%; Activity (Hep 3B2 [15]): 37%; inhibition of growth at 10 µM (Hep 3B2 [36]): 18%; IC50 (HUVEC): 115 µM; Activity (Hep 3B2 [29]): 20.3%
3 | CNC(=O)c1cc(Oc2ccc(NC(=O)Nc3ccc(Cl)c(C(F)(F)F)c3)cc2)ccn1 [SORAFENIB] | 6.2% | 5.3% | 2.3% | 84.9% | 2.4% | 4% | Tde | 2% | 5% | 11.8% | 13.7% | 3.2% | 6.1% | 65% | 1.3% | 7.3% | 1.5% | 6.9% | 5.2% | 7.2% | Activity (Hep 3B2 [2]): 15%; Activity (Hep 3B2 [3]): 45.7%; inhibition at 24 h, 25 µM [34]: 41.4%; Activity (Hep 3B2 [9]): 53.6%; inhibition at 24 h, 50 µM [35]: 60%; Activity (Hep 3B2 [12]): 15.2%; Activity (Hep 3B2 [14]): 12.3%; Activity (Hep 3B2 [17]): 13.6%; Activity (Hep 3B2 [18]): Dose-dependent effect; Activity (Hep 3B2 [24]): 7.9%; inhibition of growth at 10 µM (Hep 3B2 [36]): 8.6%; IC50 (HUVEC): 40.6 µM; Activity (Hep 3B2 [28]): 19.8%; Activity (Hep 3B2 [32]): 14.3%
